US20250214991A1 (Oncopia Therapeutics, Inc. d/b/a/ SK Life Science Labs, priority 2022, published 2025)

Experiments:
CRBN/DDB1 = CRBN/DDB1 (Homo sapiens (Human), UniProt Q96SW2); test: IC50 measurements for binding to CRBN/DDB1 (HTRF); conditions: His tagged CRBN+DDB, Cy5-labeled Thalidomide probe, one hour
Summary of the method: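 Serially diluted compounds compete with a Cy5-labeled thalidomide tracer (60 nM) for His-tagged CRBN-DDB1 (2 nM), detected via anti-6His Tb cryptate (0.4 nM); buffer HEPES pH 7.5 with TCEP, Brij-35, NaCl, BSA. One-hour room-temperature incubation, HTRF signal read, IC50 by four-parameter curve.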

IKZF2 [1] = biological target: T1, IKZF2 (Homo sapiens (Human), UniProt Q96SW2+Q9UKS7); test: In vitro IKZF2 HiBit Assay (HEK293T Flp-in-HiBiT cells); type: cell-based; conditions: HEK293T Flp-in-HiBiT cells, 6 hrs incubation; for DC50: read-out: IKZF2 HiBit DC50; for Dmax: HEK-293T, read-out: IKZF2 HiBit Dmax (%)
Summary of the method: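 Remaining tagged Helios was read as lytic HiBiT/LgBiT luminescence normalized to DMSO, yielding binned DC50 and Dmax values. Treatment ran 6 h, with compounds at 11 three-fold doses diluted from 1 mM and 0.1% final DMSO. The cells were HEK293T Flp-in with CRISPR knock-in of HiBiT at the IKZF2 N-terminus.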

IKZF2 [2] = biological target: T1, IKZF2; test: In vitro IKZF2 FACS Assay in Jurkat cells; type: cell-based; conditions: 24 hrs; for DC50: half maximal degradation concentration; for Dmax: maximal degradation percentage
Description: In vitro IKZF2 FACS Assay
DC50, A: <1 nM; B: 1-10 nM; C: 10-100 nM; D: 100-1000 nM; E: >1000 nM. Dmax, A: >80%; B: 60-80%; C: 40-60%; D: 20-40%; E: <20%.

IKZF1 = IKZF1 (Homo sapiens (Human), UniProt Q13422+Q96SW2); test: In vitro IKZF1 HiBit Assay (HEK293T Flp-in-HiBiT-IKZF1 stable cell line); type: cell-based; conditions: HEK293T Flp-in-HiBiT-IKZF1 stable cell line, 6 hrs incubation; for DC50: read-out: IKZF1 HiBit DC50; for Dmax: HEK-293T, read-out: IKZF1 HiBit Dmax (%)
Summary of the method: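 Degradation was measured as loss of luminescence from the HiBiT-IKZF1 tag after 6 h compound treatment, with 0.1% final DMSO, in stable HEK293T Flp-in cells. Values were normalized to DMSO, giving the 50% degradation concentration and the maximal degradation range.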

Sequence of CRBN/DDB1 (Q96SW2 whole entry, species assumed): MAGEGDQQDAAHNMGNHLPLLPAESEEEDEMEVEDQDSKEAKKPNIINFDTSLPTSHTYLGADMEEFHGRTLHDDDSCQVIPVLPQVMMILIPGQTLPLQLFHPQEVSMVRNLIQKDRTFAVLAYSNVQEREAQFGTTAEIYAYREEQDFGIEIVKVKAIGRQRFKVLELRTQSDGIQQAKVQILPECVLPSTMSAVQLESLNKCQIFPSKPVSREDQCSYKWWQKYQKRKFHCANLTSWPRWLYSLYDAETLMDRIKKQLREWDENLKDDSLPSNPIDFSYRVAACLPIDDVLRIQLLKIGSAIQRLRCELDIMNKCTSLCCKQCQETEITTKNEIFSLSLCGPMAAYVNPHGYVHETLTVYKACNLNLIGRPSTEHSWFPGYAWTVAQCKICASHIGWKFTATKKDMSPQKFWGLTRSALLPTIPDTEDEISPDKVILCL
Sequence of CRBN/DDB1 (Q16531 whole entry partner, species assumed): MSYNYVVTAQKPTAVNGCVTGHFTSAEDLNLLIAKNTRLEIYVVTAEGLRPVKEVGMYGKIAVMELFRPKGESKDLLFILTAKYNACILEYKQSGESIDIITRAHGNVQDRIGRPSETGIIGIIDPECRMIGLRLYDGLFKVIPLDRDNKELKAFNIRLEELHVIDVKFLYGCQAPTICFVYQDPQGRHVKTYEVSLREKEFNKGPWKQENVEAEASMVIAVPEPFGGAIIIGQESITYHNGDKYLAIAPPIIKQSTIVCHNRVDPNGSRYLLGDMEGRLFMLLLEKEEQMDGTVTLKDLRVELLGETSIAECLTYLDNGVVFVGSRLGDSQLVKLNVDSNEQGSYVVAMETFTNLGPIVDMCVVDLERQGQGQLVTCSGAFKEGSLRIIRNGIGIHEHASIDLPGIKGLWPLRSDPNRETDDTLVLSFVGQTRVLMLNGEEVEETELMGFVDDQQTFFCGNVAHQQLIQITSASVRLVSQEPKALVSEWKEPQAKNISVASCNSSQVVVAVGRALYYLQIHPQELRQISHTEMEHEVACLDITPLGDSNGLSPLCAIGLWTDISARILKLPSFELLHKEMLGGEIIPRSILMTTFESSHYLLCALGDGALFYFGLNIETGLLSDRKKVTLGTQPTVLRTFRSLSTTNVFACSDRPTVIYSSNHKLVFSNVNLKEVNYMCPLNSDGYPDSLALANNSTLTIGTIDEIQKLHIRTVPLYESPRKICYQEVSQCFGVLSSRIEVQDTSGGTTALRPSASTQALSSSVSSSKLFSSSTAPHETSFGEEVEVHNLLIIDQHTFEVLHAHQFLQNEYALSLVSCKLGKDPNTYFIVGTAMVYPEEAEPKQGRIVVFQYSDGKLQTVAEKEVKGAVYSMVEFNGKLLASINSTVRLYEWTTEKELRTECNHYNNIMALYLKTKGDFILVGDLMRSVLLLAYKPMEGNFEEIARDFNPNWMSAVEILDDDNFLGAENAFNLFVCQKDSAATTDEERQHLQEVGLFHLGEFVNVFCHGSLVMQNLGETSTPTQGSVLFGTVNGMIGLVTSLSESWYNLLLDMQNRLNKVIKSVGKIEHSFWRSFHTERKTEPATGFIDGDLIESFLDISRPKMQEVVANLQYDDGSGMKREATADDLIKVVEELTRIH
T1 sequence (Q9UKS7 whole entry): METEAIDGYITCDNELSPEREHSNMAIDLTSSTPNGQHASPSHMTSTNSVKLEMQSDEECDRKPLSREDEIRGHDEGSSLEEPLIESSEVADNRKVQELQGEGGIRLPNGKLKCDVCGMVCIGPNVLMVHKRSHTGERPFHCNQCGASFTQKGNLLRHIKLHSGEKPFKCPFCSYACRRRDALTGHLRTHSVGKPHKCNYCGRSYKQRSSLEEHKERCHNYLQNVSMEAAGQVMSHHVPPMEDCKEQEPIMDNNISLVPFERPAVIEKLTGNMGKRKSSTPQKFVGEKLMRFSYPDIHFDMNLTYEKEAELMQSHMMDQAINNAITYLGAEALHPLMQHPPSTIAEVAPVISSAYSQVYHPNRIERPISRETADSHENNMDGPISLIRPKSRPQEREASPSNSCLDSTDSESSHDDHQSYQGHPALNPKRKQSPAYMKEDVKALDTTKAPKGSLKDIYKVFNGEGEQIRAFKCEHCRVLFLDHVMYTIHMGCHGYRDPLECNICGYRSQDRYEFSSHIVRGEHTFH
T1 sequence (Q96SW2 whole entry): as the sequence (Q96SW2 whole entry, species assumed) above
T1 sequence (Q16531 2-1140 partner): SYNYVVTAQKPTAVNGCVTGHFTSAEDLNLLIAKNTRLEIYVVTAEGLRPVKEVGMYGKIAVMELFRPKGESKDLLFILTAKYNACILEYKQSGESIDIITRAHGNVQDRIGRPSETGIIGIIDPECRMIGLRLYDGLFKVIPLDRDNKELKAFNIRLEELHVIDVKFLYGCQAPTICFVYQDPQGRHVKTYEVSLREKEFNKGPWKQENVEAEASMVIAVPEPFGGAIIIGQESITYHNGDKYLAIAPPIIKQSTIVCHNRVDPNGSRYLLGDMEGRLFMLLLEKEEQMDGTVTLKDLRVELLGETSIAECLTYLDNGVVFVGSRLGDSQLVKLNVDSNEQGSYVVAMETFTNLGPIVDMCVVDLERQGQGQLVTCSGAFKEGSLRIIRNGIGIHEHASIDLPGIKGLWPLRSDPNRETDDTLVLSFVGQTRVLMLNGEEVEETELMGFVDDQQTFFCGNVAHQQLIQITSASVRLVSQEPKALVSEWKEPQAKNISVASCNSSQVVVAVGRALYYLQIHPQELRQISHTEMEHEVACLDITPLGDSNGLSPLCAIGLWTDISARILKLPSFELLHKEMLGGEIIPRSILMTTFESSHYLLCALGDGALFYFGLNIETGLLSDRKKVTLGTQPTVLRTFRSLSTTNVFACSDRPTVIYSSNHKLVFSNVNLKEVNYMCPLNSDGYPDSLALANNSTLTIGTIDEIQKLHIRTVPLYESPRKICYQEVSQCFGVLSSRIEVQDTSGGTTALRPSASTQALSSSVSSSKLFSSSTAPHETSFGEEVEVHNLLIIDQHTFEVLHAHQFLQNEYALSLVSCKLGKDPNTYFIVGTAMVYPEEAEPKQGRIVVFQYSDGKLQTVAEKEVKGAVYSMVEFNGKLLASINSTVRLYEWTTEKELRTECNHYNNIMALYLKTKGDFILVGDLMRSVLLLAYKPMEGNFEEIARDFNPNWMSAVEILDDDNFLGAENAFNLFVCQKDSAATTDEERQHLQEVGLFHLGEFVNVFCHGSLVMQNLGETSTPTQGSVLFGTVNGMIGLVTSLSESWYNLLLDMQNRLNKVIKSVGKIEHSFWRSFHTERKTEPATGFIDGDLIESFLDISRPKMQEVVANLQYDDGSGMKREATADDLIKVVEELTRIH
Sequence of IKZF1 (Q13422 whole entry): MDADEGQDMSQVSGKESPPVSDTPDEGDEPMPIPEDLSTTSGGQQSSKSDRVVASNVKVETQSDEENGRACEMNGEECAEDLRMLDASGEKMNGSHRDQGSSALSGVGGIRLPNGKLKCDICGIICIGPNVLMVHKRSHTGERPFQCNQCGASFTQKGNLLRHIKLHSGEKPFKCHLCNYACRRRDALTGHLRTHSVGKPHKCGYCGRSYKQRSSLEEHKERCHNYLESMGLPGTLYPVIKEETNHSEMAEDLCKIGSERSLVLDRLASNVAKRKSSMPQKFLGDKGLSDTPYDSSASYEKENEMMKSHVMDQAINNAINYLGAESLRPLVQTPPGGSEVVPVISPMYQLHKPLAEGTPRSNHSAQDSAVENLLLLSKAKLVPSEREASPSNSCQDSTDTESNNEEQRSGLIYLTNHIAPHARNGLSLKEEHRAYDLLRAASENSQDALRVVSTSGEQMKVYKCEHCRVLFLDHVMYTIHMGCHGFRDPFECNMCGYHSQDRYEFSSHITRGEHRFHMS
Sequence of IKZF1 (Q96SW2 whole entry): as the sequence (Q96SW2 whole entry, species assumed) above
Sequence of IKZF1 (Q16531 2-1140 partner): as the sequence (Q16531 2-1140 partner) above

Compound | IC50 (CRBN/DDB1) [µM] | DC50 (IKZF2 [1]) [µM] | Dmax (IKZF2 [1]) [%] | DC50 (IKZF2 [2]) [µM] | Dmax (IKZF2 [2]) [%] | DC50 (IKZF1) [µM] | Dmax (IKZF1) [%]
CN(C)c1ccnc2c(CN3CCCC3)cc(-c3ccc4c(c3)CN(C3CCC(=O)NC3=O)C4=O)nc12 (centres unmarked) [Example 237, 3-(5-(8-(dimethylamino)-4-(pyrrolidin-1-ylmethyl)-1,5-naphthyridin-2-yl)-1-oxoisoindolin-2-yl) piperidine-2,6-dione] | 1 to 5 | 0.01 to 0.1 | 60 to 80 | 0.01 to 0.1 | 40 to 60 | 0.001 to 0.01 | 20 to 40
O=C1CCC(N2Cc3cc(-c4cc(CN5CCCC5)c5ncn(C6COC6)c5n4)ccc3C2=O)C(=O)N1 (centres unmarked) [Example 211, 3-(5-(3-(oxetan-3-yl)-7-(pyrrolidin-1-ylmethyl)-3H-imidazo[4,5-b]pyridin-5-yl)-1-oxoisoindolin-2-yl) piperidine-2,6-dione] | 0.5 to 1 | 0.01 to 0.1 | 60 to 80 | 0.01 to 0.1 | 60 to 80 | > 10 | < 20
CC(C)Oc1ccnc2c(CN3CCCC3)cc(-c3ccc4c(c3)CN(C3CCC(=O)NC3=O)C4=O)nc12 (centres unmarked) [Example 232, 3-(5-(8-isopropoxy-4-(pyrrolidin-1-ylmethyl)-1,5-naphthyridin-2-yl)-1-oxoisoindolin-2-yl) piperidine-2,6-dione] | 0.5 to 1 | 0.001 to 0.01 | 60 to 80 | 0.01 to 0.1 | 60 to 80 | > 10 | < 20
Nc1nn(C2CC2)c2c(CN3CCCC3)cc(-c3ccc4c(c3)CN(C3CCC(=O)NC3=O)C4=O)nc12 (centres unmarked) [Example 210, 3-(5-(3-amino-1-cyclopropyl-7-(pyrrolidin-1-ylmethyl)-1H-pyrazolo[4,3-b]pyridin-5-yl)-1-oxoisoindolin-2-yl) piperidine-2,6-dione] | 0.5 to 1 | 0.001 to 0.01 | > 80 | 0.001 to 0.01 | > 80 | 0.1 to 1 | 40 to 60
O=C1CCC(N2Cc3cc(-c4cc(CN5CCCC5)c5[nH]ncc5n4)ccc3C2=O)C(=O)N1 (centres unmarked) [Example 307, 3-(1-oxo-5-(7-(pyrrolidin-1-ylmethyl)-1H-pyrazolo[4,3-b]pyridin-5-yl)isoindolin-2-yl) piperidine-2,6-dione] | 0.1 to 0.5 | 0.001 to 0.01 | > 80 | 0.001 to 0.01 | > 80 | 1 to 10 | 20 to 40
CC(C)Nc1n[nH]c2c(CN3CCCC3)cc(-c3ccc4c(c3Cl)CN(C3CCC(=O)NC3=O)C4=O)nc12 (centres unmarked) [Example 227, 3-(4-chloro-5-(3-(isopropylamino)-7-(pyrrolidin-1-ylmethyl)-1H-pyrazolo[4,3-b]pyridin-5-yl)-1-oxoisoindolin-2-yl) piperidine-2,6-dione] | 0.5 to 1 | 0.001 to 0.01 | 60 to 80 | 0.01 to 0.1 | > 80 | > 10 | < 20
O=C1CCC(N2Cc3c(ccc(-c4cc(CN5CCCC5)c5ccn(C6COC6)c5n4)c3F)C2=O)C(=O)N1 (centres unmarked) [Example 223, 3-(4-fluoro-5-(1-(oxetan-3-yl)-4-(pyrrolidin-1-ylmethyl)-1H-pyrrolo[2,3-b]pyridin-6-yl)-1-oxoisoindolin-2-yl) piperidine-2,6-dione] | 0.1 to 0.5 | < 0.001 | 60 to 80 | 0.001 to 0.01 | > 80 | 0.001 to 0.01 | 20 to 40
O=C1CCC(N2Cc3cc(-c4cc(CN5CCC6(CC5)COC6)cc5cncn45)ccc3C2=O)C(=O)N1 (centres unmarked) [Example 10, 3-(5-(7-((2-oxa-7-azaspiro[3.5]nonan-7-yl)methyl)imidazo[1,5-a]pyridin-5-yl)-1-oxoisoindolin-2-yl) piperidine-2,6-dione] | 0.5 to 1 | 1 to 10 | 40 to 60 | 0.001 to 0.01 | 40 to 60 | > 10 | < 20
O=C1CCC(N2Cc3c(ccc(-c4cc(CN5CCCC5)c5ccn(C6COC6)c5n4)c3Cl)C2=O)C(=O)N1 (centres unmarked) [Example 228, 3-(4-chloro-5-(1-(oxetan-3-yl)-4-(pyrrolidin-1-ylmethyl)-1H-pyrrolo[2,3-b]pyridin-6-yl)-1-oxoisoindolin-2-yl) piperidine-2,6-dione] | 0.1 to 0.5 | 0.001 to 0.01 | 60 to 80 | 0.01 to 0.1 | 60 to 80 | > 10 | < 20
O=C1CCC(N2Cc3cc(-c4ncc5cc(CN6CCCC6)ccn45)ccc3C2=O)C(=O)N1 (centres unmarked) [Example 52, 3-(1-oxo-5-(7-(pyrrolidin-1-ylmethyl)imidazo[1,5-a]pyridin-3-yl)isoindolin-2-yl) piperidine-2,6-dione] | 0.5 to 1 | 0.001 to 0.01 | 60 to 80 | 0.01 to 0.1 | 40 to 60 | > 10 | < 20
O=C1CCC(N2Cc3cc(-c4cc(CN5CCCC5)c5cn[nH]c5n4)ccc3C2=O)C(=O)N1 (centres unmarked) [Example 105, 3-(1-oxo-5-(4-(pyrrolidin-1-ylmethyl)-1H-pyrazolo[3,4-b]pyridin-6-yl)isoindolin-2-yl) piperidine-2,6-dione] | 0.5 to 1 | 0.001 to 0.01 | > 80 | 0.001 to 0.01 | > 80 | 1 to 10 | 20 to 40
Nc1n[nH]c2c(CN3CC4COCC(C4)C3)cc(-c3ccc4c(c3)CN(C3CCC(=O)NC3=O)C4=O)nc12 (centres unmarked) [Example 215, 3-(5-(7-((3-oxa-7-azabicyclo[3.3.1]nonan-7-yl)methyl)-3-amino-1H-pyrazolo[4,3-b]pyridin-5-yl)-1-oxoisoindolin-2-yl) piperidine-2,6-dione] | 0.1 to 0.5 | 0.01 to 0.1 | > 80 | 0.01 to 0.1 | > 80 | 0.1 to 1 | 20 to 40
O=C1CCC(N2Cc3cc(-c4cc(CN5CC6COCC6C5)c5ccn(C6COC6)c5n4)ccc3C2=O)C(=O)N1 (centres unmarked) [Example 186, 3-(5-(1-(oxetan-3-yl)-4-((tetrahydro-1H-furo[3,4-c]pyrrol-5 (3H)-yl)methyl)-1H-pyrrolo[2,3-b]pyridin-6-yl)-1-oxoisoindolin-2-yl) piperidine-2,6-dione] | 0.1 to 0.5 | 0.001 to 0.01 | > 80 | 0.001 to 0.01 | > 80 | > 10 | < 20
O=C1CCC(N2Cc3cc(-c4cc(CN5CCCC5)c5ncn(C6CCC6)c5n4)ccc3C2=O)C(=O)N1 (centres unmarked) [Example 209, 3-(5-(3-cyclobutyl-7-(pyrrolidin-1-ylmethyl)-3H-imidazo[4,5-b]pyridin-5-yl)-1-oxoisoindolin-2-yl) piperidine-2,6-dione] | 1 to 5 | 0.001 to 0.01 | > 80 | 0.01 to 0.1 | > 80 | > 10 | < 20
O=C1CCC(N2Cc3cc(-c4cc(CN5CCC(CO)C5)c5ccn(C6COC6)c5n4)ccc3C2=O)C(=O)N1 (centres unmarked) [Example 164, 3-(5-(4-((3-(hydroxymethyl)pyrrolidin-1-yl)methyl)-1-(oxetan-3-yl)-1H-pyrrolo[2,3-b]pyridin-6-yl)-1-oxoisoindolin-2-yl) piperidine-2,6-dione] | 0.1 to 0.5 | 0.01 to 0.1 | 60 to 80 | 0.01 to 0.1 | > 80 | 0.1 to 1 | 20 to 40
O=C1CCC(N2Cc3cc(-c4cc(CN5CCCC5)c5ccn(C6CCC6)c5n4)ccc3C2=O)C(=O)N1 (centres unmarked) [Example 128, 3-(5-(1-cyclobutyl-4-(pyrrolidin-1-ylmethyl)-1H-pyrrolo[2,3-b]pyridin-6-yl)-1-oxoisoindolin-2-yl) piperidine-2,6-dione] | 0.1 to 0.5 | < 0.001 | > 80 | 0.001 to 0.01 | > 80 | 0.01 to 0.1 | 20 to 40
O=C1CCC(N2Cc3cc(-c4cc(CN5CCCC5)c5ccn(C6COC6)c5n4)ccc3C2=O)C(=O)N1 (centres unmarked) [Example 129, 3-(5-(1-(oxetan-3-yl)-4-(pyrrolidin-1-ylmethyl)-1H-pyrrolo[2,3-b]pyridin-6-yl)-1-oxoisoindolin-2-yl) piperidine-2,6-dione] | 0.1 to 0.5 | < 0.001 | > 80 | 0.001 to 0.01 | > 80 | 0.01 to 0.1 | 20 to 40
